melting point | SMILES
205 to 206 °C | CN(C)CC1CCc2cc(NC(=O)c3ccc(-c4ccc(C(F)(F)F)cc4)cc3)ccc2C1 (stereo not drawn) [Example 29, N-[6-[(N,N-Dimethylamino)methyl]-5,6,7,8-tetrahydro-2-naphthalenyl]-4′-(trifluoromethyl)[1,1-biphenyl]-4-carboxamide]
177 to 178 °C | CN(C)CC1CCc2cc(NC(=O)c3ccc(-c4cccnc4)cc3)ccc2C1 (stereo not drawn) [Example 30, N-[6-[(N,N-Dimethylamino)methyl]-5,6,7,8-tetrahydro-2-naphthalenyl]-4-(3-pyridinyl)benzamide]
235 to 237 °C | CN(C)CC1CCc2cc(NC(=O)c3ccc(-c4ccc(NC(=O)C(F)(F)F)cc4)cc3)ccc2C1 (stereo not drawn) [Example 31, N-[6-[(N,N-Dimethylamino)methyl]-5,6,7,8-tetrahydro-2-naphthalenyl]-4′-[(trifluoroacetyl)amino][1,1′-biphenyl]-4-carboxamide]
185 to 187 °C | CN(C)CC1CCc2cc(NC(=O)c3ccc(-c4ccc(C5=NC(C)(C)CO5)cc4)cc3)ccc2C1 (stereo not drawn) [Example 32, N-[6-[(N,N-Dimethylamino)methyl]-5,6,7,8-tetrahydro-2-naphthalenyl]-4′-(4,4-dimethyl-4,5-dihydro-1,3-oxazole 2-yl)[1,1′-biphenyl]-4-carboxamide]
148 to 150 °C | CN(C)CC1CCc2cc(NC(=O)c3ccc(-c4ccc(N)cc4)cc3)ccc2C1 (stereo not drawn) [Example 33, 4′-Amino-N-[6-[(N,N-dimethylamino)methyl]-5,6,7,8-tetrahydro-2-naphthalenyl][1,1′-biphenyl]-4-carboxamide]
165 to 166 °C | CN(C)CC1CCc2cc(NC(=O)c3ccc(-c4cccs4)cc3)ccc2C1 (stereo not drawn) [Example 34, N-[6-[(N,N-Dimethylamino)methyl]-5,6,7,8-tetrahydro-2-naphthalenyl]-4-(2-thienyl) benzamide]
156 to 158 °C | CCOC(=O)c1ccc(-c2ccc(C(=O)Nc3ccc4c(c3)CCC(CN(C)C)C4)cc2)cc1 (stereo not drawn) [Example 35, Ethyl 4′-[[[6-[(N,N-dimethylamino)methyl]-5,6,7,8-tetrahydro-2-naphthalenyl]amino]carbonyl][1,1′-biphenyl]-4-carboxylate]
178 to 180 °C | CSc1ccc(-c2ccc(C(=O)Nc3ccc4c(c3)CCC(CN(C)C)C4)cc2)cc1 (stereo not drawn) [Example 36, N-[6-[(N,N-Dimethylamino)methyl]-5,6,7,8-tetrahydro-2-naphthalenyl]-4′-(methylsulfanyl)[1,1′-biphenyl]-4-carboxamide]
212 to 213 °C | CN(C)CC1CCc2cc(NC(=O)c3ccc(-c4ccc(N(C)C)cc4)cc3)ccc2C1 (stereo not drawn) [Example 37, 4′-(N,N-Dimethylamino)-N-[6-[(N,N-dimethylamino)methyl]-5,6,7,8-tetrahydro-2-naphthalenyl][1,1′-biphenyl)-4-carboxamide]
163 to 165 °C | CNc1ccc(-c2ccc(C(=O)Nc3ccc4c(c3)CCC(CN(C)C)C4)cc2)cc1 (stereo not drawn) [Example 38, N-[6-[(N,N-Dimethylamino)methyl]-5,6,7,8-tetrahydro-2-naphthalenyl]-4′-(methylamino)[1,1′-biphenyl]-4-carboxamide]
143 °C (dec.) | CN(C)CC1CCc2cc(NC(=O)c3ccc(-c4ccc(C(=O)O)cc4)cc3)ccc2C1 (stereo not drawn) [Example 40, 4′-[[[6-[(N,N-Dimethylamino)methyl]-5,6,7,8-tetrahydro-2-naphthalenyl]amino]carbonyl][1,1′-biphenyl]-4-carboxylic acid]
204 to 207 °C | CN(C)CC1=Cc2ccc(NC(=O)c3ccc(-c4ccc(Cl)cc4)cc3)cc2CC1 [Example 41, 4′-Chloro-N-[6-[(N,N-dimethyl)methyl]-7,8-dihydro-2-naphthalenyl][1,1′-biphenyl]-4-carboxamide]
190 to 193 °C | CN(C)CC1=Cc2ccc(NC(=O)c3ccc(-c4ccc(F)cc4)cc3)cc2CC1 [Example 42, 4′-Fluoro-N-[6-[(N,N-dimethylamino)methyl]-7,8-dihydro-2-naphthalenyl][1,1′-biphenyl]-4-carboxamide]
192 to 194 °C | CN(C)CC1Cc2ccc(NC(=O)c3ccc(-c4ccc(Cl)cc4)cc3)cc2C1 (stereo not drawn) [Example 43, 4′-Chloro-N-[2-[(dimethylamino)methyl]-2,3-dihydro-1H-inden-5-yl][1,1′-biphenyl]-4-carboxamide]
167 to 169 °C | CN(C)CC1CCCc2cc(NC(=O)c3ccc(-c4ccc(F)cc4)cc3)ccc2C1 (stereo not drawn) [Example 45, 4′-Fluoro-N-[6-[(dimethylamino)methyl]-6,7,8,9-tetrahydro-5H-benzo[a]cyclohepten-2-yl][1,1′-biphenyl]-4-carboxamide]
173 to 175 °C | CN(C)CC1CCCc2cc(NC(=O)c3ccc(-c4ccc(Cl)cc4)cc3)ccc2C1 (stereo not drawn) [Example 46]
173 to 175 °C | CN(C)CC1=Cc2ccc(NC(=O)c3ccc(-c4ccccc4)cc3)cc2CC1 [Example 47, N-[6-[(Dimethylamino)methyl]-7,8-dihydro-2-naphthalenyl][1,1′-biphenyl]-4-carboxamide]
145 to 147 °C | CN(C)CC1=Cc2ccc(NC(=O)c3ccc(-c4ccccc4Cl)cc3)cc2CC1 [Example 50, 2′-Chloro-N-[6-[(dimethylamino)methyl]-7,8-dihydro-2-naphthalenyl][1,1′-biphenyl]-4-carboxamide]

melting point | SMILES
179 to 181 °C | O=C(Nc1ccc2c(c1)CCC(CN1CCCCC1)C2)c1ccc(-c2ccc(F)cc2)cc1 (stereo not drawn) [Example 54, 4′-Fluoro-N-[6-(1-piperidinylmethyl)-5,6,7,8-tetrahydro-2-naphthalenyl][1,1′-biphenyl]-4-carboxamide]
162 to 164 °C | O=C(Nc1ccc2c(c1)CCC(CN1CCCCC1)C2)C1CC(=O)N(c2ccccc2)C1 (stereo not drawn) [Example 56, 5-Oxo-1-phenyl-N-[6-(1-piperidinylmethyl)-5,6,7,8-tetrahydro-2-naphthalenyl]-3-pyrrolidinecarboxamide]
195 to 196 °C | Cc1ccc(-c2ccc(C(=O)Nc3ccc4c(c3)CCC(CN(C)C)=C4)cc2)cc1 [Example 85]
169 to 170 °C | O=C(Nc1ccc2c(c1)CCC(CN1CCCC1)=C2)c1ccc(-c2ccc(F)cc2F)nc1 [Example 87, 6-(2,4-Difluorophenyl)-N-[6-[(1-pyrrolidinyl)methyl]-7,8-dihydro-2-naphthalenyl]nicotinamide]
176 to 177 °C | O=C(Nc1ccc2c(c1)CCC(CN1CCCC1)=C2)c1ccc(-c2ccccc2)cc1 [Example 94, N-[6-(1-Pyrrolidinylmethyl)-7,8-dihydro-2-naphthalenyl][1,1′-biphenyl]-4-carboxamide]
189 to 192 °C | O=C(Nc1ccc2c(c1)CCC(CN1CCCC1)=C2)c1ccc(-c2ccc(F)cc2)cc1 [Example 95, 4′-Fluoro-N-[6-(1-pyrrolidinylmethyl)-7,8-dihydro-2-naphthalenyl][1,1′-biphenyl]-4-carboxamide]
144 to 146 °C | O=C(Nc1ccc2c(c1)CCC(CN1CCCC1)C2)c1ccc(-c2ccccc2)cc1 (stereo not drawn) [Example 96, N-[6-(1-Pyrrolidinylmethyl)-5,6,7,8-tetrahydro-2-naphthalenyl][1,1′-biphenyl]-4-carboxamide]
185 to 189 °C | O=C(Nc1ccc2c(c1)CCC(CN1CCCC1)C2)c1ccc(-c2ccc(F)cc2)cc1 (stereo not drawn) [Example 97, 4′-Fluoro-N-[6-(1-pyrrolidinylmethyl)-5,6,7,8-tetrahydro-2-naphthalenyl][1,1′-biphenyl]-4-carboxamide]
206 to 209 °C | O=C(Nc1ccc2c(c1)CCC(CN1CCCC1)C2)c1ccc(-c2ccc(Cl)cc2)cc1 (stereo not drawn) [Example 98, 4′-Chloro-N-[6-(1-pyrrolidinylmethyl)-5,6,7,8-tetrahydro-2-naphthalenyl][1,1′-biphenyl]-4-carboxamide]
179 to 181 °C | O=C(Nc1ccc2c(c1)CCC(CN1CCCC1)=C2)N1CCN(c2ccc(F)cc2)CC1 [Example 100, 4-(4-Fluorophenyl)-N-[6-(1-pyrrolidinylmethyl)-7,8-dihydro-2-naphthalenyl]-1-piperazinecarboxamide]
175 to 179 °C | CN(C)CC1=Cc2ccc(C(=O)Nc3ccc(Br)cc3)cc2CC1 [Example 101, N-(4-Bromophenyl)-6-[(dimethylamino)methyl]-7,8-dihydro-2-naphthalenecarboxamide]
165 to 167 °C | O=C(Nc1ccc2c(c1)CCC(CN1CCCC1)=C2)c1ccc(-c2ccc(F)cc2F)cc1 [Example 103, 2′,4′-Difluoro-N-[6-(1-pyrrolidinylmethyl)-7,8-dihydro-2-naphthalenyl][1,1′-biphenyl]-4-carboxamide]
124 to 126 °C | CN(C)CC1COc2ccc(NC(=O)c3ccc(-c4ccccc4)cc3)cc2O1 (stereo not drawn) [Example 104, N-[3-[(Dimethylamino)methyl]-2,3-dihydro-1,4-benzodioxin-6-yl][1,1′-biphenyl]-4-carboxamide]
215 to 217 °C | CN(C)CC1COc2cc(NC(=O)c3ccc(-c4ccc(Cl)cc4)cc3)ccc2O1 (stereo not drawn) [Example 106, 4′-Chloro-N-[2-[(dimethylamino)methyl]-2,3-dihydro-1,4-benzodioxin-6-yl][1,1′-biphenyl]-4-carboxamide]
209 to 210 °C | CN(C)CC1COc2cc(NC(=O)c3ccc(-c4ccc(F)cc4F)cc3)ccc2O1 (stereo not drawn) [Example 107, 2′,4′-Difluoro-N-[2-[(dimethylamino)methyl]-2,3-dihydro-1,4-benzodioxin-6-yl][1,1′-biphenyl]-4-carboxamide]
218 to 220 °C | O=C(Nc1ccc2c(c1)OCC(CN1CCCC1)O2)c1ccc(-c2ccc(Cl)cc2)nc1 (stereo not drawn) [Example 108, 6=(4-Chlorophenyl)-N-[2-(1-pyrrolidinylmethyl)-2,3-dihydro-1,4-benzodioxin-6-yl]nicotinamide]
199 to 204 °C | CC1=C(CN(C)C)CCc2cc(NC(=O)c3ccc(-c4ccc(Cl)cc4)cc3)ccc21 [Example 111, 4′-Chloro-N-[6-[(dimethylamino)methyl]-5-methyl-7,8-dihydro-2-naphthalenyl][1,1′-biphenyl]-4-carboxamide]
201 to 204 °C | CCC1=C(CN(C)C)CCc2cc(NC(=O)c3ccc(-c4ccc(Cl)cc4)cc3)ccc21 [Example 112, 4′-Chloro-N-[6-[(dimethylamino)methyl]-S-ethyl-7,8-dihydro-2-naphthalenyl][1,1′-biphenyl]-4-carboxamide]
